The subject of assay [1] is phosphorylation of RNA Polymerase II (RNAPII) at the Ser2 site in MCF7 cells. As to the kind of experiment: MCF7 pSer2 RNAPII MOA assay (immunofluorescence). The assay is classed as cell-based. The settings on record: Homo sapiens, MCF7, 6 h, 6-hr treatment, read-out: p-Ser 2 RNAPII (IC50). Put shortly: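 MCF7 cells (2500/well), plated overnight, were treated for 6 h at 37° C. with CDK9 inhibitors in a 7-point dose response from 3 μM to 0.004 μM. Cells were then fixed, permeabilized and immunostained for Ser2-phospho RNAPII with Alexa Fluor 488 secondary plus DAPI. Per-well phosphorylation was read by microplate cytometry.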

Another assay concerns MV411 cells. The experiment in a line: MV411 caspase activity assay (Caspase-Glo 3/7). It is filed as cell-based. The following applies: Homo sapiens, MV4-11, 6 h, 6-hr treatment, caspase 3/7 induction. Put shortly: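 MV411 AML cells (3000/well) were plated overnight, then treated with compound for 6 h at 37 °C. Caspase-3/7 activity was read as luminescence after 30 min with Caspase-Glo 3/7 reagent at room temperature.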

In assay [2] the target is T1, CDK9/CycT1 (Homo sapiens (Human), UniProt P50750). As to the kind of experiment: CDK9 kinase assay, high ATP concentration (5 mM ATP). It is filed as biochemical. The following applies: 1.5 nM CDK9, read-out: CDK9 High ATP conc. (IC50). Put shortly:
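Caliper mobility-shift read-out of phosphorylated vs unphosphorylated FITC-peptide (1.5 μM), giving percent turnover. Final 1.5 nM CDK9/CycT1 and 5 mM ATP in 50 mM HEPES pH 7.2, 1 mM DTT, 10 mM MgCl2; compound preincubated 15 min, reaction 90 min at 25° C, stopped with EDTA.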

Assay [3] deals with T1, CDK9/CycT1. As to the kind of experiment: CDK9 kinase assay, ATP concentration at Km (mobility shift, Caliper LC3000). The settings on record: 6 μM ATP, 3 nM CDK9/CycT1; read-out: CDK9 ATP conc. at Km (IC50). It is filed as biochemical. Put shortly: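 3 nM CDK9/CycT1 with 6 µM ATP and 1.5 µM FITC-peptide (HEPES pH 7.2) was preincubated with compound 15 min at 25 °C. Reaction started with 10 mM MgCl2 and ran 90 min at 25 °C. Turnover was measured by mobility-shift separation of phosphorylated and unphosphorylated peptide.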

Some results are limits rather than exact numbers.

T1 sequence (P50750 whole entry): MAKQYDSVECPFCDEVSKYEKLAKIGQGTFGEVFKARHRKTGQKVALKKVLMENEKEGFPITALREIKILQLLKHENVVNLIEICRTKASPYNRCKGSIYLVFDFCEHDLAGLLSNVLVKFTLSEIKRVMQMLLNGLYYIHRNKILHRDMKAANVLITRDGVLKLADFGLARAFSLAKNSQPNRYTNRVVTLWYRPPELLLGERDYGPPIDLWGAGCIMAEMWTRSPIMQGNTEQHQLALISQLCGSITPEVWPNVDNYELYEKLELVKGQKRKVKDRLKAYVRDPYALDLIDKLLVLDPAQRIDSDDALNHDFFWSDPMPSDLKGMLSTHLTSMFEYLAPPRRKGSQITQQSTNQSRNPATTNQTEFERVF
T1 sequence (O60563 whole entry partner): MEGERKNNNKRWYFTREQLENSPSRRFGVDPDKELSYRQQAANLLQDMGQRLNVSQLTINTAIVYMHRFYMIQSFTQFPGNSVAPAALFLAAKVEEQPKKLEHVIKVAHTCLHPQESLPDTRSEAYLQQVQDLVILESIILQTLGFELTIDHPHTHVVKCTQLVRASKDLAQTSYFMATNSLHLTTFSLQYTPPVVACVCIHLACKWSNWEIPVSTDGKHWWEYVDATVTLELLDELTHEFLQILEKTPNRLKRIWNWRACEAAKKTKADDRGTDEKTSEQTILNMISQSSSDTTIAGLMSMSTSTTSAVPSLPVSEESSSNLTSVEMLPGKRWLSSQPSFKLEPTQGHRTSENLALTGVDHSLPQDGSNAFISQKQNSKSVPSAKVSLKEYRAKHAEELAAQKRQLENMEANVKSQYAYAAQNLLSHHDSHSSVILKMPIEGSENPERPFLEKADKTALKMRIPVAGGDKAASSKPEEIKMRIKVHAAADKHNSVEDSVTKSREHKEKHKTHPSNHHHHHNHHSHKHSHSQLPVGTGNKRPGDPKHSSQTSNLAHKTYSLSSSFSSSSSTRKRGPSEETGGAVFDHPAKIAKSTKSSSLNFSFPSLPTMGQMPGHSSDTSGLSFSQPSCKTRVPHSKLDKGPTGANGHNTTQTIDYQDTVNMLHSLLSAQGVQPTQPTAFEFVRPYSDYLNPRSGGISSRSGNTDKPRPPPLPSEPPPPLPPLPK

For `CC(=O)N[C@@H]1CCC[C@H](C(=O)Nc2cc(-c3cn[nH]c3CCCCO)c(Cl)cn2)C1` [Example 78a, (1S,3R)-3-acetamido-N-(5-chloro-4-(5-(4-hydroxybutyl)-1H-pyrazol-4-yl)pyridin-2-yl)cyclohexanecarboxamide], the IC50 is over 2630 nM in assay [1], 7130 nM in the assay with MV411 cells, 85 nM on CDK9/CycT1 [2] and under 3 nM on CDK9/CycT1 [3].
As to `CC(=O)N[C@@H]1CCC[C@H](C(=O)Nc2cc(-c3cnn4c3CCCCC4)c(F)cn2)C1` [Example 74, (1S,3R)-3-acetamido-N-(5-fluoro-4-(5,6,7,8-tetrahydro-4H-pyrazolo[1,5-a]azepin-3-yl)pyridin-2-yl)cyclohexanecarboxamide], the concentration for half-maximal inhibition (IC50) in assay [1] was 192 nM; with MV411 cells it was 281 nM; at CDK9/CycT1 [2], 39 nM; at CDK9/CycT1 [3], under 3 nM.
`O=C(Nc1cc(-c2cnn3c2CCCC3)c(Cl)cn1)[C@@H]1CCCNC1` [Example 5, (R)—N-(5-chloro-4-(4,5,6,7-tetrahydropyrazolo[1,5-a]pyridin-3-yl)pyridin-2-yl)piperidine-3-carboxamide]: the IC50 in assay [1] was 260 nM; in the assay on MV411 cells, 160 nM; on CDK9/CycT1 [2], 270 nM; at CDK9/CycT1 [3] it was under 4 nM.
As for `CC(=O)N[C@@H]1CCC[C@@H](C(=O)Nc2cc(-c3cnn4c3CC(C)(C)C4)c(F)cn2)C1` (single isomer, unassigned) [Example 83], the half-inhibitory concentration (IC50) is 61 nM in assay [1], 73 nM with MV411 cells, 25 nM on CDK9/CycT1 [2] and under 3 nM on CDK9/CycT1 [3].
The corresponding values for `CC(=O)N[C@@H]1CCC[C@H](C(=O)Nc2cc(-c3cnn4c3OCCC4)c(Cl)cn2)C1` [Example 8, (1S,3R)-3-acetamido-N-(5-chloro-4-(6,7-dihydro-5H-pyrazolo[5,1-b][1,3]oxazin-3-yl)pyridin-2-yl)cyclohexanecarboxamide] are 690 nM, 256 nM, 120 nM and under 3 nM.
For `O=C(Nc1cc(-c2cnn3c2CCCC3)ccn1)[C@H]1C[C@@H](O)C1` [Example 6, cis-3-hydroxy-N-(4-(4,5,6,7-tetrahydropyrazolo[1,5-a]pyridin-3-yl)pyridin-2-yl)cyclobutanecarboxamide], the IC50 in assay [1] stood at 460 nM; in the assay on MV411 cells, 630 nM; on CDK9/CycT1 [2] it was 750 nM; at CDK9/CycT1 [3], 8 nM.
Take `CC(=O)N[C@@H]1CCC[C@H](C(=O)Nc2cc(-c3cnn4c3CC(C)CC4)c(Cl)cn2)C1` (single isomer, unassigned) [Example 64]: the IC50 in assay [1] is 45 nM; in the assay with MV411 cells it was 43 nM; at CDK9/CycT1 [2] it was 7 nM; on CDK9/CycT1 [3], under 3 nM.

As a reminder, the IC50 is the concentration that inhibits the measured activity by half.

Values taken from patent US10717746B2, “Chemical compounds” (ASTRAZENECA AB, priority 2015, dated 2020).
